Results published in ChEMBL document CHEMBL5325400 (Eur J Med Chem, 2023).
Active and inactive are the calls of the source. The rule behind the calls is not given here.

Key:
A2780/Taxol = assay: Antiproliferative activity against paclitaxel resistant human A2780/Taxol cells assessed as inhibition of cell growth incubated for 48 hrs by MTT assay; type: functional, cell-based
A549 [1] = assay: Antitumor activity against human A549 cells xenografted in BALB/c mouse assessed as tumor volume at 10 mg/kg, ip administered every other day for 25 days; type: functional; settings: time 25 day
[2] = Toxicity in BALB/c mouse xenografted with human A549 cells assessed as change in body weight at 10 mg/kg, ip administered every other day for 25 days; type: organism-based; settings: in vivo, 600 h, time 25 day
A549 [3] = assay: Residual cell migration in human A549 cells at 10 nM incubated for 12 hrs by crystal violet staining based transwell assay; settings: A549, 12 h
[4] = AUC(0 to t) in Sprague-Dawley rat at 1 mg/kg, iv by LC-MS analysis; type: ADME, organism-based; set-up: dose 1 mg/kg, route iv; settings: in vivo
A549 [5] = assay: Antitumor activity against human A549 cells xenografted in BALB/c mouse assessed as decrease in CD-31 expression in tumor at 10 mg/kg, ip administered every other day for 25 days by immunohistochemistry analysis; type: functional, organism-based; settings: time 25.0 day
A549 [6] = assay: Induction of apoptosis in human A549 cells assessed as viable cells at 10 nM incubated for 24 hrs by annexin V-FITC/propidium iodide staining based flow cytometry analysis (reference value: 96.44%); type: functional; settings: read-out: Activity
A549 [7] = assay: Induction of apoptosis in human A549 cells assessed as early apoptotic cells at 40 nM incubated for 24 hrs by annexin V-FITC/propidium iodide staining based flow cytometry analysis (reference value: 0.84%); type: functional
A549 [8] = assay: Antitumor activity against human A549 cells xenografted in BALB/c mouse assessed as upregulation of cleaved PARP expression in tumor at 10 mg/kg, ip administered every other day for 25 days by Western blotting analysis; type: functional, organism-based; settings: time 25.0 day
[9] = Toxicity in BALB/c mouse assessed as change in body weight at 10 mg/kg, ip; type: organism-based; settings: in vivo
B16-F10 = assay: Inhibition of cell migration in mouse B16-F10 cells assessed as total number of cells migrated at 10 nM incubated for 12 hrs by crystal violet staining based transwell assay (reference value: 692 +/- 11); type: functional
A549 [10] = assay: Antitumor activity against human A549 cells xenografted in BALB/c mouse assessed as reduction in AKT phosphorylation at S473 residue in tumor at 5 to 10 mg/kg, ip administered every other day for 25 days by Western blotting analysis; type: functional, organism-based; settings: dose 5-10 mg/kg, time 25.0 day
A549 [11] = assay: Antiproliferative activity against human A549 cells expressing lentivirus RNAi VTI-96660 assessed as inhibition of cell growth measured after 48 hrs by MTT assay; type: functional, cell-based
A549 [12] = assay: Induction of cell cycle arrest in human A549 cells assessed as accumulation at G2 phase at 20 nM incubated for 24 hrs by PI staining based flow cytometry (Rvb= 12.49%); type: functional
A549 [13] = assay: Induction of cell cycle arrest in human A549 cells assessed as accumulation at S phase at 40 nM incubated for 24 hrs by PI staining based flow cytometry (Rvb= 20.94%); type: functional
A549 [14] = assay: Antitumor activity against human A549 cells xenografted in BALB/c mouse assessed as downregulation of Bcl-2 expression in tumor at 5 mg/kg, ip administered every other day for 25 days by Western blotting analysis; type: functional, organism-based; settings: time 25.0 day
A549 [15] = assay: Induction of apoptosis in human A549 cells assessed as late apoptotic cells at 40 nM incubated for 24 hrs by annexin V-FITC/propidium iodide staining based flow cytometry analysis (reference value: 0.37%); type: functional

SMILES: COc1cccc(Nc2cc(Nc3cccc(NC(=O)C4CC4)c3)ncn2)c1
- IC50 (A2780/Taxol): 132 nM
- Activity (A549 [1]): 63.77%
- Activity [2]: Non-Toxic
- level, % of control at 0.01 µM (A549 [3]): 70.6%
- AUC(0-t) [4]: 239 ng·h/mL
- Activity (A549 [5]): Active
- viability at 0.01 µM (A549 [6]): 82.2%
- Activity (A549 [7]): 3.86%
- Activity (A549 [8]): Active
- Activity [9]: Non-Toxic
- Activity (B16-F10): 510
- Activity (A549 [10]): inactive
- Activity (A549 [11]): Active
- Activity (A549 [12]): 33.13%
- Activity (A549 [13]): 15.31%
- Activity (A549 [14]): Active
- Activity (A549 [15]): 26.72%
